Experimental data as given in ChEMBL document CHEMBL1221257, “Hit-to-lead optimization of a series of carboxamides of ethyl 2-amino-4-phenylthiazole-5-carboxylates as novel adenosine A2A receptor antagonists” (Bioorg Med Chem Lett, 2010).

Experiments:
Adenosine receptor A2a [1] = target: T1, Adenosine receptor A2a (Homo sapiens, UniProt P29274)
Description: Displacement of [3H]ZM241385 from human adenosine A2A receptor expressed in buculovirus system by liquid scintillation counting

Adenosine receptor A1 = target: T2, Adenosine receptor A1 (Homo sapiens, UniProt P30542); assay: Displacement of [3H]DPCPX from human adenosine A1 receptor expressed in CHO cells by liquid scintillation counting; type: cell-based
T2 sequence (P30542 whole entry): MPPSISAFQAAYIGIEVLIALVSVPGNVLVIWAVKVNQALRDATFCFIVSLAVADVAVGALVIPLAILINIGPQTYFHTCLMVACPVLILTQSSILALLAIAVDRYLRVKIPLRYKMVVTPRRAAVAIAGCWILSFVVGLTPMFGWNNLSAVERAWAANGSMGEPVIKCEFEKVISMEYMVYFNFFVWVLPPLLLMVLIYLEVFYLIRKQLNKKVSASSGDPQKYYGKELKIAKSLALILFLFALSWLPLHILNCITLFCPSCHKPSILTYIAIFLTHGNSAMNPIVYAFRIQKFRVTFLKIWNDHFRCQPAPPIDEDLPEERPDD

Mus musculus [2] = assay: Reversal of haloperidol-induced hypolocomotion in po dosed NMRI mouse model of Parkinson's disease measured for 20 mins; type: functional
Mus musculus [3] = assay: In-vivo displacement of [3H]SCH442416 from adenosine A2A receptor in po dosed NMRI mouse by liquid scintillation counting; type: functional
Adenosine receptor A2a [4] = target: T1, Adenosine receptor A2a; assay: Displacement of [3H]ZM241385 from human adenosine A2A receptor expressed in buculovirus system at 10 uM by liquid scintillation counting
[5] = target: T3, Adenosine receptor A1 (Homo sapiens) (UniProt P30542); assay: Displacement of [3H]DPCPX from human adenosine A1 receptor expressed in CHO cells at 10 uM by liquid scintillation counting; type: cell-based
T3 sequence (whole entry): T2 sequence (P30542 whole entry)

[6] = target: T3, Adenosine receptor A1 (Homo sapiens); assay: Displacement of [3H]DPCPX from human adenosine A1 receptor expressed in CHO cells at 2000 nM by liquid scintillation counting; type: cell-based

T1 sequence (P29274 whole entry): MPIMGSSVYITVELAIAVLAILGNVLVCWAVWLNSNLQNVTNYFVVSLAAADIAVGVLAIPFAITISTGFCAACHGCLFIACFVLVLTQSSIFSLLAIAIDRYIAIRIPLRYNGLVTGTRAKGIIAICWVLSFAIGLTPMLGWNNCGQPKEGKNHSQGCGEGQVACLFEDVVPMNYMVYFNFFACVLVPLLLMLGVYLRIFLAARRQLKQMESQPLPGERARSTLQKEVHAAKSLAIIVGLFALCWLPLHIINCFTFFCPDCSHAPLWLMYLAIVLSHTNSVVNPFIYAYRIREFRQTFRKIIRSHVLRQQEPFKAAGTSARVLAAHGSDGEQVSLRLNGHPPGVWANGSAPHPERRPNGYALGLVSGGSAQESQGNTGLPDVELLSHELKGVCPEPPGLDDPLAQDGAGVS

| Structure (SMILES) | Ki (Adenosine receptor A2a [1]) [nM] | Ki (Adenosine receptor A1) [nM] | also measured |
| --- | --- | --- | --- |
| Cc1noc(-c2sc(NC(=O)CC(C)C)nc2-c2ccccc2)n1 | 48 | 27 | – |
| Cc1nc(-c2sc(NC(=O)CC(C)C)nc2-c2ccccc2)no1 | 33 | 82 | – |
| Cc1noc(-c2sc(NC(=O)Cc3ccccc3)nc2-c2ccccc2)n1 | 57 | 340 | – |
| Cc1noc(-c2sc(NC(=O)c3ccccc3)nc2-c2ccccc2)n1 | 190 | 180 | – |
| Cc1nc(-c2sc(NC(=O)C3CC3)nc2-c2ccccc2)no1 | 28 | 150 | Activity (Mus musculus [2]): Dose-dependent effect; ED50 (Mus musculus [2]): 7 mg/kg; ED50 (Mus musculus [3]): 5.8 mg/kg |
| CCOC(=O)c1sc(NC(=O)c2ccco2)nc1-c1ccccc1 | 13 | 95 | – |
| CCOCc1sc(NC(=O)c2ccco2)nc1-c1ccccc1 | 190 | 92 | – |
| CC(=O)Nc1nc(-c2ccccc2)c(-c2nc(C)no2)s1 | 110 | 370 | – |
| O=C(Nc1nc(-c2ccccc2)c(-c2ncon2)s1)c1ccco1 | 410 | 230 | – |
| CCn1c(=O)c2c(nc(/C=C/c3ccc(OC)c(OC)c3)n2C)n(CC)c1=O [ISTRADEFYLLINE] | – | 3000 | ED50 (Mus musculus [2]): 0.13 mg/kg |
| CCS(=O)(=O)c1sc(NC(=O)c2ccco2)nc1-c1ccccc1 | – | – | Activity (Adenosine receptor A2a [4]): 25% |
| O=C(Cc1ccccc1)Nc1nc(-c2ccccc2)c(-c2ncon2)s1 | 710 | 1700 | – |
| CCCC(=O)c1sc(NC(=O)c2ccco2)nc1-c1ccccc1 | 62 | 90 | – |
| CC(C)CC(=O)Nc1nc(-c2ccccc2)c(-c2ncon2)s1 | 340 | 77 | – |
| CCn1nnc(-c2sc(NC(=O)c3ccco3)nc2-c2ccccc2)n1 | 94 | 650 | – |
| CCn1nnc(-c2sc(NC(=O)Cc3ccc(OC)c(OC)c3)nc2-c2ccccc2)n1 | 45 | 1600 | – |

| Structure (SMILES) | Ki (Adenosine receptor A2a [1]) [nM] | Ki (Adenosine receptor A1) [nM] | also measured |
| --- | --- | --- | --- |
| N#Cc1sc(NC(=O)c2ccco2)nc1-c1ccccc1 | 290 | – | – |
| Cc1nc(-c2sc(NC(=O)c3ccccc3)nc2-c2ccccc2)no1 | 83 | – | Activity [5]: 45% |
| CCn1nnc(-c2sc(NC(=O)C3CC3)nc2-c2ccccc2)n1 | 77 | 210 | – |
| CC(=O)Nc1nc(-c2ccccc2)c(-c2noc(C)n2)s1 | 190 | – | Activity [5]: 76% |
| Cc1nc(-c2sc(NC(=O)Cc3ccccc3)nc2-c2ccccc2)no1 | 25 | 260 | – |
| O=C(Nc1nc(-c2ccccc2)c(-c2ncon2)s1)c1ccccc1 | 330 | 300 | – |
| Cc1nc(-c2sc(NC(=O)c3ccco3)nc2-c2ccccc2)no1 | 700 | 780 | – |
| O=C(Nc1nc(-c2ccccc2)c(C(=O)O)s1)c1ccco1 | – | – | Activity (Adenosine receptor A2a [4]): 0% |
| Cc1noc(-c2sc(NC(=O)C3CC3)nc2-c2ccccc2)n1 | 12 | 41 | – |
| Cc1noc(-c2sc(NC(=O)c3ccco3)nc2-c2ccccc2)n1 | 200 | 270 | – |
| CCn1nnc(-c2sc(NC(=O)Cc3ccccc3)nc2-c2ccccc2)n1 | 460 | 1200 | – |
| COCCOc1ccc(N2CCN(CCn3ncc4c3nc(N)n3nc(-c5ccco5)nc43)CC2)cc1 [PRELADENANT] | 5 | > 1000 | ED50 (Mus musculus [2]): 0.4 mg/kg; Activity [6]: 30% |
| O=C(Nc1nc(-c2ccccc2)c(-c2ncon2)s1)C1CC1 | 120 | 310 | – |
| CCNC(=O)c1sc(NC(=O)c2ccco2)nc1-c1ccccc1 | – | – | Activity (Adenosine receptor A2a [4]): 37% |
| CCn1nnc(-c2sc(NC(=O)c3ccccc3)nc2-c2ccccc2)n1 | 220 | – | Activity [5]: 65% |
